ChEMBL document CHEMBL1138432, “Cytotoxic cucurbitacin constituents from Sloanea zuliaensis” (2003)

Experiments:
Type in all cases: functional
MCF7 = assay: Cytotoxicity against human MCF7 cells
SF-268 = assay: Cytotoxicity against human SF268 cells
NCI-H460 = assay: Cytotoxicity against human H460 cells

SMILES | GI50 (MCF7) [nM] | GI50 (SF-268) [nM] | GI50 (NCI-H460) [nM]
CC(=O)OC(C)(C)/C=C/C(=O)[C@](C)(O)[C@H]1[C@H](O)C[C@@]2(C)[C@@H]3CC=C4[C@@H](C[C@H](O)[C@@H](O)C4(C)C)[C@]3(C)C(=O)C[C@]12C | 110 | 87 | 65
CC(C)(O)/C=C/C(=O)[C@](C)(O)[C@H]1[C@H](O)C[C@@]2(C)[C@@H]3CC=C4[C@@H](CCC(=O)C4(C)C)[C@]3(C)C(=O)C[C@]12C | 41 | 210 | 32
CC(C)(O)/C=C/C(=O)[C@](C)(O)[C@H]1[C@H](O)C[C@@]2(C)[C@@H]3CC=C4[C@@H](C[C@H](O)C(=O)C4(C)C)[C@]3(C)C(=O)C[C@]12C [CUCURBITACIN D] | 20 | 21 | 13
